Source: paper PMC12090182, “Repurposing of the RIPK1-Selective Benzo[1,4]oxazepin-4-one Scaffold for the Development of a Type III LIMK1/2 Inhibitor” (ACS Chemical Biology, 2025)
pEC50: −log10 of the molar value.

What was measured:
BTK = molecular target: T1, BTK (Homo sapiens, UniProt Q06187); assay: NanoBRET cellular target engagement; format: cell-based; settings: HEK293T cells, read-out: EC50 (NanoBRET), Figure 4C
T1 construct: full-length LIMK1/2, RIPK1, BTK, and LRRK2 cloned in a frame in a NanoLuc-vector (Promega); host or cells: HEK293T
T1 sequence (Q06187 whole entry): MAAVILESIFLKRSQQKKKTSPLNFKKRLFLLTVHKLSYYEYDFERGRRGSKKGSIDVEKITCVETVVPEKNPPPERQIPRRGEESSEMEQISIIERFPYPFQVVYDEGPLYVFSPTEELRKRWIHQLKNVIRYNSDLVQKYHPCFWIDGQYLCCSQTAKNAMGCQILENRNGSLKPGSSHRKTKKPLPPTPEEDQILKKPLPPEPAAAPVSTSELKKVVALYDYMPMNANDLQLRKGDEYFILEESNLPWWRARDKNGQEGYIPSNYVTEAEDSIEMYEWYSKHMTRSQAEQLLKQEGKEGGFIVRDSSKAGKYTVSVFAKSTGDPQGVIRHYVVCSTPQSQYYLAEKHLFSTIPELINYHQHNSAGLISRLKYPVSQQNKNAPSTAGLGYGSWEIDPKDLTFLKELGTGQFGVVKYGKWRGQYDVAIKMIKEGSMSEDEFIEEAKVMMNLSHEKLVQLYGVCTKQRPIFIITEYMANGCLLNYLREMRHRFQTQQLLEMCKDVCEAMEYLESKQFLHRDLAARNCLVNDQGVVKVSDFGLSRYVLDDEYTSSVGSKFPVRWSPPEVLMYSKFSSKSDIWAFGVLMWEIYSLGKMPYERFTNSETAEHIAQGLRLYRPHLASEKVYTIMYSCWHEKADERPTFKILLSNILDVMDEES
Description: (§1) The assay was performed as described previously.[31],[32] In brief, full-length LIMK1/2, RIPK1, BTK, and LRRK2 cloned in a frame in a NanoLuc-vector (Promega) were transfected into HEK293T cells (ATCC CRL-1573) using FuGENE HD (Promega, E2312), and proteins were allowed to express for 20 h. The serially diluted inhibitor and NanoBRET Kinase Tracer (Promega) used at the previously determined Tracer KD,app (Table S1) were pipetted into white 384-well plates (Greiner 781 207) using an ECHO 550 acoustic dispenser (Labcyte). The corresponding transfected cells were added and reseeded at a density of 2 × 10^5 cells/mL after trypsinization and resuspension in Opti-MEM without phenol red (Life Technologies). The system was allowed to equilibrate for 2 h at 37 °C and 5% CO2 prior to BRET measurements. To measure BRET, a NanoBRET Nano-Glo substrate and an extracellular NanoLuc inhibitor (Promega, N2160) were added as per the manufacturer's protocol, and filtered luminescence was measured on a PHERAstar plate reader (BMG Labtech) equipped with a luminescence filter pair (a 450 nm BP filter (donor) and a 610 nm LP filter (acceptor)). Competitive displacement data were then plotted using GraphPad Prism 10 software using a normalized three-parameter curve fit with the following equation: Y = 100/( [drawing 1] ).

LRRK2 = LRRK2 (Homo sapiens, UniProt Q5S007); assay: NanoBRET cellular target engagement; format: cell-based; settings: LRRK2, HEK293T cells; read-out: EC50 (NanoBRET), Figure 4C
LRRK2, sequence (Q5S007 whole entry): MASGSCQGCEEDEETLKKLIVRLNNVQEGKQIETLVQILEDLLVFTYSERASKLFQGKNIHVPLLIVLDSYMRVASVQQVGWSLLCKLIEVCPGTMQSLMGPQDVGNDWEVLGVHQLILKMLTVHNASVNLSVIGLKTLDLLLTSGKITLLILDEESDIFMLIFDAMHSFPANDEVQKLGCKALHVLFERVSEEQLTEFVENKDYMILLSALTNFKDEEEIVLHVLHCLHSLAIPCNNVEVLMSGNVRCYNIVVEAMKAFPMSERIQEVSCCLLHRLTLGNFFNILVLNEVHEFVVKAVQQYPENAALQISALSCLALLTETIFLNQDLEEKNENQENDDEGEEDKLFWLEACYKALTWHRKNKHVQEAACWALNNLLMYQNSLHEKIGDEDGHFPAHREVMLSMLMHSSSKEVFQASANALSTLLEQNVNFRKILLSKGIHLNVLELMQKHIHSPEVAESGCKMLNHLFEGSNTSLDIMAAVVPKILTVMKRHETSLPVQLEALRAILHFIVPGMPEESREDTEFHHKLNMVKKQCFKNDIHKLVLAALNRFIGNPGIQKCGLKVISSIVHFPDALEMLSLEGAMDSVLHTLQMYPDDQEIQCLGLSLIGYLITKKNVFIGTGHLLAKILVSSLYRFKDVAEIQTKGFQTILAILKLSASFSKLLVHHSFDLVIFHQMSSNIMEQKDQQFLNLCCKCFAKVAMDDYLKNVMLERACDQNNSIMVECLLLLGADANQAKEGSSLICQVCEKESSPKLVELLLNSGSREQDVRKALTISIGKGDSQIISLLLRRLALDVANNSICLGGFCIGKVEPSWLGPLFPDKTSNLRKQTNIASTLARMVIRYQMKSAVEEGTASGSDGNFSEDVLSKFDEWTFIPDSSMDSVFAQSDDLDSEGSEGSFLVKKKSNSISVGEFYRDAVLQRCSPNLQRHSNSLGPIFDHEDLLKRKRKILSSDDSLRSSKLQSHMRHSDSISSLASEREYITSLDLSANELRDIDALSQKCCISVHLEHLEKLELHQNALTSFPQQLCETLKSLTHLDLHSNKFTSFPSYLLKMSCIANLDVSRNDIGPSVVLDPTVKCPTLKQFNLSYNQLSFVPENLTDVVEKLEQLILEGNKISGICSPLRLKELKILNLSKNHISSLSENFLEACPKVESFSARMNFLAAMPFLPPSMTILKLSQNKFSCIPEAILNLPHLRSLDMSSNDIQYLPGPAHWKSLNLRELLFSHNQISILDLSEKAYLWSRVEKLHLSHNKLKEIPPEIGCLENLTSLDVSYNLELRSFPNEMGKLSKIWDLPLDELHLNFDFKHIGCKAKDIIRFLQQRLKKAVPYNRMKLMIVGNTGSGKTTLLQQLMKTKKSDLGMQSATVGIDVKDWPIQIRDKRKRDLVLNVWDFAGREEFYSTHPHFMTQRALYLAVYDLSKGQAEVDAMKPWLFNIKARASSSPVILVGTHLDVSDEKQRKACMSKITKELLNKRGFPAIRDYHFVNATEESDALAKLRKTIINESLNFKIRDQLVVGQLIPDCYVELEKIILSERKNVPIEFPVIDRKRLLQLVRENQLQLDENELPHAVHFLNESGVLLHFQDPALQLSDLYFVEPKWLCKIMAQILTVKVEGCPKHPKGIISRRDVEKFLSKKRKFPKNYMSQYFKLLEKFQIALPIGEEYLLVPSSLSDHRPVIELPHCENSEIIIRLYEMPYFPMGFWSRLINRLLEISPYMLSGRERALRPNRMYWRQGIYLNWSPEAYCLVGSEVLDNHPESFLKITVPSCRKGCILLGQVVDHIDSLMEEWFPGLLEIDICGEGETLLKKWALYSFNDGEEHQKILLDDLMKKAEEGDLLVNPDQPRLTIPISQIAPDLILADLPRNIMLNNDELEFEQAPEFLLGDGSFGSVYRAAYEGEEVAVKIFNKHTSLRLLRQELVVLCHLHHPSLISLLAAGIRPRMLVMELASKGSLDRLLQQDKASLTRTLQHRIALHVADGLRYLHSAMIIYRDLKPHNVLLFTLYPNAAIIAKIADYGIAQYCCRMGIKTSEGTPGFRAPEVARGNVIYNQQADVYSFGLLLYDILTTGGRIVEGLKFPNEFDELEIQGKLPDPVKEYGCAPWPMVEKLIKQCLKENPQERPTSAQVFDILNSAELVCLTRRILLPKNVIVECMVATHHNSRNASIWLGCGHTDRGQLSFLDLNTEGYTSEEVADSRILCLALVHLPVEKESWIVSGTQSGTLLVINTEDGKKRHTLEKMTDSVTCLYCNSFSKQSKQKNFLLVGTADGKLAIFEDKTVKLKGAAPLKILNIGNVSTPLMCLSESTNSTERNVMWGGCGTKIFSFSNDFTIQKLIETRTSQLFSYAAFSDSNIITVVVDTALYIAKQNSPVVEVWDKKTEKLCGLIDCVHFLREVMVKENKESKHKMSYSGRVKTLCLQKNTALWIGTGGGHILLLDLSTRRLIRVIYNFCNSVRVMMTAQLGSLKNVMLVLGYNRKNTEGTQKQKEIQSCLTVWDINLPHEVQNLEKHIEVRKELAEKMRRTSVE
Description: as §1

[1] = molecular target: ABL1(Y253F)-phosphorylated (Homo sapiens, UniProt P00519, Y253F); assay: biochemical; format: binding; settings: read-out: Percent Control

CN1C(=O)[C@@H](N2CCc3c(nn(Cc4ccccc4)c3C(N)=O)C2=O)COc2cc(Cl)ccc21 [Compound 10, (S)-2-benzyl-6-(8-chloro-5-methyl-4-oxo-2,3,4,5-tetrahydrobenzo[b][1,4]oxazepin-3-yl)-7-oxo-4,5,6,7-tetrahydro-2H-pyrazolo[3,4-c]pyridine-3-carboxamide]
pEC50 (BTK): < 4.30
pEC50 (LRRK2): < 4.30
remaining activity at 1 µM [1]: 85%
